Several values for one entry are separate records, joined by “and”; a condition that tells them apart may be missing. Equal values may be shown once. Toxic doses and inconclusive results are not listed.
System: P388 leukemia ip, CD2F1 mice, survival T/C
Assay: NCI In Vivo Anticancer Drug Screen. Data for tumor model P388 Leukemia (intraperitoneal) in CD2F1 (CDF1) mice
Details: endpoint: median survival time, higher = longer survival
Summary of the method: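 Mice carrying the transplanted tumor received test compound or vehicle. Survival was recorded in each group, and the value is the treated-group measurement divided by that of the vehicle-treated control group.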

[1] = dose: 50.0 mg/kg/injection, schedule: Q01DX005 (ip), vehicle: saline with Tween-80
[2] = dose: 100.0 mg/kg/injection, schedule: Q01DX005 (ip), vehicle: saline with Tween-80
[3] = dose: 200.0 mg/kg/injection, schedule: Q01DX005 (ip), vehicle: saline with Tween-80
[4] = dose: 100.0 mg/kg/injection, schedule: Q04DX003 (ip), vehicle: saline
[5] = dose: 200.0 mg/kg/injection, schedule: Q04DX003 (ip), vehicle: saline
[6] = dose: 400.0 mg/kg/injection, schedule: Q04DX003 (ip), vehicle: saline
[7] = dose: 60.0 mg/kg/injection, schedule: Q01DX005 (ip), vehicle: saline with Tween-80

O=C(CN1C(=O)c2ccccc2C1=O)C(O)CN1C(=O)c2ccccc2C1=O (configuration not stated)
T/C [1]: 94 % of control
T/C [2]: 94 % of control
T/C [3]: 100 % of control

CCc1ncnc2cc(OCC3CO3)c(OC)cc12 (configuration not stated)
T/C (dose: 6.25 mg/kg/injection, schedule: Q01DX005 (ip), vehicle: saline): 114 % of control
T/C (dose: 25.0 mg/kg/injection, schedule: Q01DX005 (ip), vehicle: saline): 155 % of control and 158 % of control
T/C (dose: 50.0 mg/kg/injection, schedule: Q01DX005 (ip), vehicle: saline): 154 % of control and 158 % of control and 182 % of control

C(=C\c1cc2ccc(C3=NCCN3)cc2[nH]1)/c1cc2ccc(C3=NCCN3)cc2[nH]1
T/C [4]: 162 % of control
T/C [5]: 162 % of control
T/C [6]: 271 % of control

CC(C)C[N+]1(Cc2ccc(Cl)cc2Cl)CCOCC1
T/C [4]: 101 % of control
T/C [5]: 93 % of control

Cc1nn(C)cc1P(=O)(c1ccccc1)c1ccccc1
T/C (dose: 50.0 mg/kg/injection, schedule: Q01DX005 (ip), vehicle: Klucel (hydroxypropylcellulose) (HPC)): 98 % of control
T/C (dose: 100.0 mg/kg/injection, schedule: Q01DX005 (ip), vehicle: Klucel (hydroxypropylcellulose) (HPC)): 96 % of control

COc1ccc2c(c1)CCC1C2=CC(=O)/C1=C\[O-].COc1ccc2c(c1)CCC1C2=CC(=O)/C1=C\[O-].[Cu+2] (configuration not stated)
T/C (dose: 33.0 mg/kg/injection, schedule: Q04DX003 (ip), vehicle: saline with Tween-80): 109 % of control
T/C (dose: 50.0 mg/kg/injection, schedule: Q04DX003 (ip), vehicle: saline with Tween-80): 100 % of control and 90 % of control
T/C (dose: 75.0 mg/kg/injection, schedule: Q04DX003 (ip), vehicle: saline with Tween-80): 100 % of control

c1ccc(N=Nc2ccc3ns[s+]c3c2)cc1
T/C [7]: 92 % of control
T/C (dose: 120.0 mg/kg/injection, schedule: Q01DX005 (ip), vehicle: saline with Tween-80): 95 % of control
T/C (dose: 240.0 mg/kg/injection, schedule: Q01DX005 (ip), vehicle: saline with Tween-80): 103 % of control

c1ccc2nc3c(ccc4ccccc43)cc2c1
T/C (dose: 50.0 mg/kg/injection, schedule: Q04DX003 (ip), vehicle: olive oil, sesame oil, peanut oil): 101 % of control
T/C (dose: 91.0 mg/kg/injection, schedule: Q04DX003 (ip), vehicle: saline with Tween-80): 104 % of control
T/C (dose: 100.0 mg/kg/injection, schedule: Q04DX003 (ip), vehicle: olive oil, sesame oil, peanut oil): 103 % of control
T/C (dose: 182.0 mg/kg/injection, schedule: Q04DX003 (ip), vehicle: saline with Tween-80): 101 % of control
T/C (dose: 200.0 mg/kg/injection, schedule: Q04DX003 (ip), vehicle: olive oil, sesame oil, peanut oil): 103 % of control
T/C (dose: 364.0 mg/kg/injection, schedule: Q04DX003 (ip), vehicle: saline with Tween-80): 99 % of control
T/C (dose: 400.0 mg/kg/injection, schedule: Q04DX003 (ip), vehicle: olive oil, sesame oil, peanut oil): 105 % of control

O=[N+]([O-])c1ccc(CS(=O)(=O)OCCCl)cc1
T/C [1]: 98 % of control
T/C [2]: 98 % of control
T/C [3]: 94 % of control

COc1nc2c(nnn2C2OC(CO)C(O)C(O)C2O)c(=O)[nH]1 (configuration not stated)
T/C (dose: 60.0 mg/kg/injection, schedule: Q01DX005 (ip), vehicle: saline): 97 % of control
T/C (dose: 120.0 mg/kg/injection, schedule: Q01DX005 (ip), vehicle: saline): 99 % of control
T/C (dose: 240.0 mg/kg/injection, schedule: Q01DX005 (ip), vehicle: saline): 100 % of control

Cc1[nH]cnc1CSCCN=C(N)n1[nH]cc(C)c1=O
T/C (dose: 60.0 mg/kg/injection, schedule: Q01DX005 (ip), vehicle: Klucel (hydroxypropylcellulose) (HPC)): 111 % of control
T/C (dose: 120.0 mg/kg/injection, schedule: Q01DX005 (ip), vehicle: Klucel (hydroxypropylcellulose) (HPC)): 100 % of control
T/C (dose: 240.0 mg/kg/injection, schedule: Q01DX005 (ip), vehicle: Klucel (hydroxypropylcellulose) (HPC)): 99 % of control

N#CCCN(CCC#N)Cc1c(O)ccc2ccccc12
T/C [1]: 104 % of control
T/C [2]: 114 % of control
T/C [3]: 117 % of control

COc1cc2ccc3c(c2cc1OC)CN(Cc1ccccc1)CC3
T/C (dose: 100.0 mg/kg/injection, schedule: Q01DX009 (ip), vehicle: Klucel (hydroxypropylcellulose) (HPC)): 100 % of control
T/C (dose: 200.0 mg/kg/injection, schedule: Q01DX009 (ip), vehicle: Klucel (hydroxypropylcellulose) (HPC)): 100 % of control
T/C (dose: 400.0 mg/kg/injection, schedule: Q01DX009 (ip), vehicle: Klucel (hydroxypropylcellulose) (HPC)): 109 % of control

O=C(Nc1ccccc1Cl)Oc1ccc(C(=O)c2ccccc2)cc1
T/C (dose: 15.0 mg/kg/injection, schedule: Q01DX005 (ip), vehicle: saline with Tween-80): 100 % of control
T/C (dose: 30.0 mg/kg/injection, schedule: Q01DX005 (ip), vehicle: saline with Tween-80): 97 % of control
T/C [7]: 90 % of control

O=P1(c2ccccc2)CCCCN1 (configuration not stated)
T/C [4]: 104 % of control
T/C [5]: 110 % of control
T/C [6]: 110 % of control
